Values joined by “and” are separate entries in the source; they are usually repeats but may differ in a detail not shown here. Identical values can stand only once. “Also recorded” adds a separate entry of the source.
How the values were obtained:
[1] = Acute toxicity, oral, rat; type: in vivo; settings: in vivo, rat, read-out: DL50
Procedure: (§1) Acute toxicity was determined orally in the Wister rat and in the Swiss mouse of both sexes.
(§2) The animals were kept fasting for at least 12 hours before the tests but whith free access to water. The compound was suspended homogeneously in gum arabic mucilage and was administered, at the set doses, in a volume of 40 ml/kg by means of a gastro-oesophageal probe.
(§3) Each dose was tested on ten animals, of which five were male and five female. The weight of the rats varied from 300 to 350 g for the males and from 220 g to 250 g for the females. The weight of the mice, of both sexes, varied from 28 g to 35 g.
(§4) The observation lasted ten days.

Wister rat = test: Acute toxicity, oral, rat; type: in vivo
Procedure: as §1, §2, §3, §4

[2] = Acute toxicity, oral, mouse; type: in vivo; settings: in vivo, mouse, read-out: DL50
Procedure: as §1, §2, §3, §4

Swiss mouse = test: Acute toxicity, oral, mouse; type: in vivo
Procedure: as §1, §2, §3, §4

female Wistar rats [3] = test: Diuretic and saluretic activity: excretion of an aqueous saline load (TABLE 1); type: in vivo, Wistar rat; settings: 5 mg/kg oral
Procedure: (§5) Both the CM/1 and the Indapamide were administered orally after being suitably dissolved in the following solvent:
(§6) The controls were treated with an equal volume of solvent. The experiments were carried out on animals which had regularly fasted for at least 12 hours, but had free access to water.
(§7) The sodium and potassium in the urine were determined by a photometric method.
The effect on the excretion of an aqueous saline load was first checked. 18 female Wistar rats were used divided into three groups, one of 8 and two of 5, and these were treated in the following manner:
GROUP A: CONTROLS 1 ml of solvent made up to 50 ml with 0.9% sodium chloride solution, administered by gastric probe, per kg of body weight (=50 ml/kg in terms of volume);
GROUP B: INDAPAMIDE 5 mg/kg in 1 ml/kg of solvent made up to 50 ml/kg with sodium chloride solution, administered by gastric probe;
GROUP C: CM/1,5 mg/kg using the same method as for the Indapamide.
The rats were placed immediately in individual metabolic cages for collecting the urine during the three hours subsequent to the load. The quantity of urine excreted is given as a percentage of the quantity administered. The sodium and potassium are expressed in mEq/3h.
Values of P less than 0.05 have been considered significant.

male rats = test: Diuretic and saluretic activity: excretion of a load of distilled water (TABLE 2); type: in vivo, Wistar rat; settings: 5 mg/kg oral + aqueous load
Procedure: as §5, §6, §7
The rats were then immediately placed in individual metabolic cages. The urine was collected over 4 hours. The quantity has been expressed in the usual manner as a percentage of the volume administered.
Sodium and potassium were also analysed, and these have been expressed as mEq/4h.
After two days, in the preceding manner, the same rats were treated with Indapamide, and after a further two days with the product CM/1. In the interval between one test and the other, the rats were housed and fed in the normal manner. The dose used for both compounds was the same as previously, i.e. 5 mg/kg.

female Wistar rats [4] = test: Effect on spontaneous diuresis (TABLE 3); type: in vivo, Wistar rat; settings: 5 mg/kg oral; for Excreted sodium/potassium ratio: 12 h; for Potassium excretion / Sodium excretion: spontaneous diuresis
Procedure: These investigations were carried out on Wistar rats of both sexes, having a body weight which is specified in each case in the relative tables, which compare the results with Indapamide. Both the CM/1 and the Indapamide were administered orally after being suitably dissolved in the following solvent:
as §6, §7
Finally, the effect on the new product of spontaneous diuresis was determined.
These investigations were carried out on 15 female Wistar rats having a body weight varying from 230 to 260 g, and divided at random into three groups of 5. The animals were kept in individual metabolic cages overnight for a period of 12 hours in order to collect the urine spontaneously excreted. One group was treated as usual with 1 ml/kg of solvent by means of a gastric probe, and the other two were treated respectively with 5 mg/kg of Indapamide and 5 mg/kg of CM/1. The sodium and potassium were analysed as usual in the urine collected.

[5] = tested on: rat with spontaneous hypertension (SHR); test: Hypotensive activity: arterial pressure of the rat with spontaneous hypertension (TABLE 4); type: in vivo, SHR male rats; settings: 1.2 mg/kg/day oral
Procedure: The effects of subacute oral treatment with CM/1 on the arterial pressure of the rat with spontaneous hypertension (SHR) were followed on 10 genetically hypertensive (SHR) male rats obtained from Charles River. They were divided at random into two groups of 5 each, and treated in the following manner:
GROUP A: CONTROLS--10% gum arabic, 5 ml/kg/day by oral administration using a gastro-oesophageal probe;
GROUP B: CM/1--1.2 mg/5 ml of gum arabic/kg/day by oral administration using a gastro-oesophageal probe.
The treatment was carried out for 28 consecutive days. The arterial pressure was recorded at regular intervals by the bloodless method, using the "BP Recorder 8005" apparatus of "W+W Electronic".
The measurement was made in the following manner: the tail of the animals was carefully depilated and then inserted into a sleeve of suitable diameter connected by a tube to a pump and a pressure gauge. The tail was then inserted into a circular transducer, which was connected to a pulse counter. When the apparatus was switched on, the pressure increased in the sleeve until the blood flow was arrested.
The pressures were now read from the pressure gauge.
Before beginning the experiments, the animals had been subjected for a week to this procedure in order to accustom them to handling.

[6] = saline load, mean ± standard error, n = 5
[7] = individual rats, base of rats 1-5: 235, 215, 260, 265, 250

## CC1c2ccccc2CN1NC(=O)c1ccc(Cl)c(S(N)(=O)=O)c1 (centres unmarked) [CM/1, 1-methyl-2-(3'-sulphamyl-4'-chlorobenzamido)-isoindoline]
[1]
  LD50 at 240 h: > 2500 mg/kg
Wister rat; Wister rat, both sexes, 10 days observation
  DL50: > 2,500 mg/kg
Wister rat; rat, individual doses up to 2,500 mg/kg
  deaths / toxic symptomatology: No deaths were observed either in the rat or in the mouse, nor was any particular toxic symptomatology found
[2]
  LD50 at 240 h: > 2500 mg/kg
Swiss mouse; Swiss mouse, both sexes, 10 days observation
  DL50: > 2,500 mg/kg
Swiss mouse; mouse, individual doses up to 2,500 mg/kg
  deaths / toxic symptomatology: No deaths were observed either in the rat or in the mouse, nor was any particular toxic symptomatology found
Female Wistar rats [3]
  diuretic and saluretic effect, CM/1 compared with Indapamide: considerably greater
Female Wistar rats [3]; individual rats
  Urine excretion of load in percent of quantity administered (cumulative excretion), 1 hour: 16.7% and 14.8% and 11.5% and 9.1% and 12.9%
  Urine excretion of load in percent of quantity administered (cumulative excretion), 2 hours: 68.3% and 32.2% and 48.5% and 64.5% and 48.7%
  Urine excretion of load in percent of quantity administered (cumulative excretion), 3 hours: 108.8% and 94.5% and 109.2% and 94.8% and 90.4%
Female Wistar rats [3]; mean ± standard error, n = 5
  Urine excretion of load in percent of quantity administered (cumulative excretion), 1 hour: 13.0 ± 1.31%
  Urine excretion of load in percent of quantity administered (cumulative excretion), 2 hours: 52.44 ± 6.46%
  Urine excretion of load in percent of quantity administered (cumulative excretion), 3 hours: 99.54 ± 3.93% and 99.5%
Female Wistar rats [3]; relative to the controls
  diuretic and saluretic effect: significant diuretic and saluretic effect relative to the controls
Female Wistar rats [3]; saline load
  ratio of the sodium to the potassium excreted during the 3 hours: 5.91
Female Wistar rats [3]; saline load, individual rats
  Potassium excretion: 0.297 mEq/3h and 0.310 mEq/3h and 0.276 mEq/3h and 0.280 mEq/3h and 0.284 mEq/3h
  Sodium excretion: 1.81 mEg/3h and 1.77 mEg/3h and 1.56 mEg/3h and 1.68 mEg/3h and 1.73 mEg/3h
Female Wistar rats [3]; [6]
  Potassium excretion: 0.289 ± 0.062 mEq/3h
  Sodium excretion: 1.71 ± 0.043 mEg/3h
Female Wistar rats [3]; versus controls
  excreted sodium and potassium: significantly higher than the controls
Male rats
  activity of CM/1 compared with Indapamide: more active than the Indapamide
  diuretic and saluretic action: significant diuretic and saluretic action
Male rats; 4 h, average
  RATIO Na/K (sodium to potassium excreted): 2.6955
Male rats; individual rats
  Cumulative percent excretion at 1 hour from load: 58.1% and 50.0% and 7.1% and 55.2% and 51.6%
  Cumulative percent excretion at 2 hours from load: 109.7% and 78.6% and 57.1% and 110.4% and 125.8%
  Cumulative percent excretion at 3 hours from load: 116.2% and 107.2% and 85.7% and 134.5% and 145.2%
  Cumulative percent excretion at 4 hours from load: 116.2% and 121.4% and 114.3% and 134.5% and 167.8%
  Potassium excretion: 0.00542 mEq/4h and 0.00512 mEq/4h and 0.00603 mEq/4h and 0.00856 mEq/4h and 0.01399 mEq/4h
  Sodium excretion: 0.01374 mEq/4h and 0.01362 mEq/4h and 0.0125 mEq/4h and 0.01671 mEq/4h and 0.04889 mEq/4h
Male rats; mean of 5 rats
  Cumulative percent excretion at 1 hour from load: 44.4%
  Cumulative percent excretion at 2 hours from load: 96.32%
  Cumulative percent excretion at 3 hours from load: 117.76%
  Cumulative percent excretion at 4 hours from load: 130.84 ± 9.89%
  Potassium excretion: 0.007824 mEq/4h
  Sodium excretion: 0.02109 mEq/4h
Female Wistar rats [4]
  diuretic action: marked diuretic action, which is stronger in the case of the product CM/1
  ratio of sodium to potassium excretion, CM/1 compared with Indapamide: higher in the group treated with the product CM/1, and the difference reaches statistical significance
  sodium and potassium excretion: increased
Female Wistar rats [4]; individual rats
  Excreted sodium/potassium ratio: 1.651 and 2.262 and 2.277 and 2.188 and 1.746
  ml of urine collected in 12 hours: 10.5 mL and 17.5 mL and 21.0 mL and 16.6 mL and 15.0 mL
  Potassium excretion: 3.708 mEq/12h and 3.042 mEq/12h and 3.911 mEq/12h and 3.508 mEq/12h and 3.430 mEq/12h
  Sodium excretion: 6.123 mEq/12h and 6.880 mEq/12h and 8.906 mEq/12h and 7.675 mEq/12h and 5.989 mEq/12h
Female Wistar rats [4]; mean ± standard error, n = 5
  Excreted sodium/potassium ratio: 2.024 ± 0.134
  ml of urine collected in 12 hours: 16.12 ± 1.71 mL
  Potassium excretion: 3.5198 ± 0.145 mEq/12h
  Sodium excretion: 7.114 ± 0.539 mEq/12h
[5]; [7]
  Systolic arterial pressure measured bloodlessly, 7th day of treatment: 210 mm Hg and 205 mm Hg and 245 mm Hg and 225 mm Hg
  Systolic arterial pressure measured bloodlessly, 14th day of treatment: 195 mm Hg and 215 mm Hg and 235 mm Hg and 200 mm Hg and 220 mm Hg
  Systolic arterial pressure measured bloodlessly, 21st day of treatment: 195 mm Hg and 210 mm Hg and 220 mm Hg and 180 mm Hg
  Systolic arterial pressure measured bloodlessly, 28th day of treatment: 185 mm Hg and 210 mm Hg and 205 mm Hg
[5]; mean, n = 5, base 245.0 ± 9.08
  Systolic arterial pressure measured bloodlessly, 7th day of treatment: 219.0 ± 7.31 mm Hg
  Systolic arterial pressure measured bloodlessly, 14th day of treatment: 213.0 ± 7.17 mm Hg
  Systolic arterial pressure measured bloodlessly, 21st day of treatment: 203.0 ± 7.00 mm Hg
  Systolic arterial pressure measured bloodlessly, 28th day of treatment: 198.0 ± 5.38 mm Hg
[5]; recording on the 28th day
  maximum reduction of the systolic arterial pressure: 20%
[5]; SHR, 28 days, 1.2 mg/kg/day
  anti-hypertensive activity: significantly reduces the systolic arterial pressure; also recorded: shows anti-hypertensive activity

Reference: US4338331A, “Isoindoline derivative and a therapeutic composition thereof” (priority 1979, dated 1982)
